{"source": "patent US11707447B1", "key": {"[1]": {"molecular_target": "5-HT2A receptor (Homo sapiens, UniProt P28223)", "sequence (P28223 whole entry)": "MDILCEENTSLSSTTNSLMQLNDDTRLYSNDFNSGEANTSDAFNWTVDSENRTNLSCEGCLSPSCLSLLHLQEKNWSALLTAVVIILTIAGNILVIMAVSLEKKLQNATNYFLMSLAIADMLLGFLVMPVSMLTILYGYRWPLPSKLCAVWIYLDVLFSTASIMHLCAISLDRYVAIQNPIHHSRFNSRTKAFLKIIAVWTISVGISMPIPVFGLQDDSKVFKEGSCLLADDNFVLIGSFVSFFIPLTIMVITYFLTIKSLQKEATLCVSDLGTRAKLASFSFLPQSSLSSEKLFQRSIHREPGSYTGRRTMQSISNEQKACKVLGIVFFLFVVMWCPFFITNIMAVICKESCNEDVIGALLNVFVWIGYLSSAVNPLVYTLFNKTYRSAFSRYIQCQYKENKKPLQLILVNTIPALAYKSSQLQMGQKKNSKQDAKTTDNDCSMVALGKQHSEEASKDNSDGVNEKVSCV", "experiment": "[3H]ketanserin competition radioligand binding assay (SPA)", "conditions": "control ligands"}, "[2]": {"molecular_target": "T1, 5-HT1A receptor (Homo sapiens, UniProt P08908)", "T1 construct": "host or cells: CHO-K1 (co-expressing Ga15)", "T1 sequence (P08908 1-422)": "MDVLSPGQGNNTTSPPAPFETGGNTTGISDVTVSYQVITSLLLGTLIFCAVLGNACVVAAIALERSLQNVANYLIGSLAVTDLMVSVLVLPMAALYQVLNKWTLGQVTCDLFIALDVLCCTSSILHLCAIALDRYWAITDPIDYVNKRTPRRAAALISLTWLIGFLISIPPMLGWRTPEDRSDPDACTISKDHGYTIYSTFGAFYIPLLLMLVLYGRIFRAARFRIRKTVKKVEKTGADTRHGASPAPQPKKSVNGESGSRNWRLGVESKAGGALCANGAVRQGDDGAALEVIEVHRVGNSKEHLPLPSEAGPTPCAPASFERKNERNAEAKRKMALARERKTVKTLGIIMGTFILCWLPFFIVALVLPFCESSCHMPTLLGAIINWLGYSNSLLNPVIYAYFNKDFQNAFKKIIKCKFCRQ", "experiment": "cAMP-Glo assay in +5-HT1A / -5-HT1A CHO-K1 cells", "format": "cell-based", "conditions": "forskolin-stimulated +5-HT1A vs -5-HT1A cells, increasing ligand"}}, "data": [{"compound": "N[C@@H](Cc1c[nH]c2ccccc12)C(=O)O", "note": "[tryptophan]", "values": [{"measurement": "5-HT2A competition binding (in words)", "setting": "[1]", "result": "negative control (no binding)"}, {"measurement": "cAMP level / 5-HT1A receptor modulation (in words)", "setting": "[2]", "result": "no reduction in cellular cAMP levels"}]}]}
